Measured values reported in article PMC12806164, “Epithelial Heparan Sulfate Promotes Staphylococcus aureus Corneal Infection by Inhibiting Cathelicidins” (Proteoglycan research, 2025).
Where two headings read alike, the source gives them in different places.

Assays:
[1] = tested on: S. aureus USA300; conditions: 500 cfu S. aureus USA300, 2 h at 37°C, cfu on TSA plates, n = 4
Protocol: Bacterial killing was measured by plating serial dilutions onto TSA plates and counting colonies the following day. Results are shown as % bacterial survival (n = 4). […] Bacterial killing (%) was enumerated by plating serial dilutions onto TSA plates and counting colonies the following day (n = 5). B) Effects of pre-incubating S. aureus with glycosaminoglycans on bacterial killing by cathelicidins were examined by incubating 500 cfu of USA300 without or with 5 μg/ml HS, HP, DS, or CS for 30 min at 37°C. Bacteria were washed three times with buffer, incubated with 0.5 μM CRAMP for 2 h at 37°C, and % bacterial killing was determined by plating serial dilutions of samples (n = 4). […] Images were captured with a fluorescence microscope (Zeiss Axiovert 40 CFL). Quantification of % dead bacteria (out of total bacteria in field) is shown at the bottom. […] S. aureus-associated CRAMP fluorescence was analyzed by flow cytometry.

[2] = ref 44 (LL-37), ref 39 (CAP-18), ref 42 (SMAP-29); cited from earlier work
Source text: Next, we examined the dose response to cathelicidins from different species, which can have relatively large differences in primary sequence.

[3] = tested on: CAP-18; assay: Inhibition by glycosaminoglycans of S. aureus killing by CAP-18; format: cell-based, rabbit; conditions: 5 μg/mL glycosaminoglycan, 0.5 μM CAP-18, ~500 cfu USA300, phosphate buffer pH 7.4, 2 h at 37°C, n = 6
Protocol: (§1) Samples were plated onto TSA plates, and viable bacteria (cfu) were counted the following day. Data are shown as % bacterial killing, where killing activity in the presence of cathelicidin only represents 100% (n = 6, *p < 0.05, ****p < 0.0001, one-way ANOVA, multiple comparisons).
(§2) (A) Schematics of HS/HP structure. […] (F) BaclightGreen-labeled S. aureus (~400 cfu) was incubated with 0.5 μM CRAMP without or with 5 μg/mL HP, NDS-HP, 2ODS-HP, 6ODS-HP, H, NS-H, or NS2OS-H for 30 min at room temperature. Bacteria were washed, incubated with 10 μg/mL propidium iodide for 15 min at 4°C, and live (green) and dead (red) bacteria were visualized by fluorescence microscopy.
(§3) Late log phase S. aureus USA300 was washed with phosphate buffer (8.2 mM Na2HPO4, 1.8 mM KH2PO4, pH 7.4) and approximately 500 cfu were incubated with cathelicidins with or without excess GAGs for 2 h at 37°C as indicated. Viable bacteria were enumerated by plating onto TSA plates and counting colonies the following day. Results are shown as % bacterial killing, where 100% killing represents data derived from the group of bacteria incubated with cathelicidins only.

[4] = tested on: CRAMP; assay: Inhibition by glycosaminoglycans of S. aureus killing by CRAMP; format: cell-based, mouse; conditions: 0.5 μM CRAMP; for Inhibition of S. aureus killing by CRAMP: 5 μg/mL glycosaminoglycan, ~500 cfu USA300, phosphate buffer pH 7.4, 2 h at 37°C, n = 6
Protocol: as §1, §2, §3
(§4) Figure S1. A) CRAMP expression was measured in uninfected Wt corneas or Wt corneas isolated at 4 h post-S. aureus USA300 infection. Briefly, eyes were enucleated, corneas were dissected, and isolated corneas were incubated with 10 mg/ml dispase II overnight at 4°C to peel off the corneal epithelium. Total RNA was purified from the corneal epithelium, and 1 ng of total RNA was analyzed by qRT-PCR for CRAMP or β-actin expression (n = 3, **p < 0.01). […] Bacterial killing was measured by plating serial dilutions onto TSA plates and counting colonies the following day. Results are shown as % bacterial survival (n = 4). Figure S2. […] Bacterial killing (%) was enumerated by plating serial dilutions onto TSA plates and counting colonies the following day (n = 5). B) Effects of pre-incubating S. aureus with glycosaminoglycans on bacterial killing by cathelicidins were examined by incubating 500 cfu of USA300 without or with 5 μg/ml HS, HP, DS, or CS for 30 min at 37°C. Bacteria were washed three times with buffer, incubated with 0.5 μM CRAMP for 2 h at 37°C, and % bacterial killing was determined by plating serial dilutions of samples (n = 4). Figure S3. S. aureus USA300 stained with BaclightGreen was incubated with 0.5 μM CRAMP in the absence or presence of 5 μg/ml HP, NDS-HP, 2ODS-HP, 6ODS-HP, H, NS-H, or NS2OS-H for 30 min at room temperature. Bacteria were washed and incubated with 10 μg/ml propidium iodide for 15 min on ice. Images were captured with a fluorescence microscope (Zeiss Axiovert 40 CFL). Quantification of % dead bacteria (out of total bacteria in field) is shown at the bottom. Figure S4. Alexa 647-conjugated CRAMP (0.5 μM) was incubated with fixed S. aureus USA300 without or with 5 μg/ml of the indicated glycosaminoglycans and chemically-desulfated HP compounds for 1 h at room temperature. S. aureus-associated CRAMP fluorescence was analyzed by flow cytometry. Representative FACS density plots are shown where heparan compounds containing 2-O-sulfated motifs decreased Alexa CRAMP binding by over 79% compared to the control (No GAG), except for NDS-HP where the reduction was approximately 65%. Fig. S5. Relative mRNA levels of A) Ndst1 and B) Sdc1 in the corneal epithelium of Hs2st^fl/fl, Krt12Cre, and Hs2st^fl/fl/Krt12Cre mice (n = 3).

[5] = tested on: LL-37; assay: Inhibition by glycosaminoglycans of S. aureus killing by LL-37; format: cell-based, human; conditions: 5 μg/mL glycosaminoglycan, 1 μM LL-37, ~500 cfu USA300, phosphate buffer pH 7.4, 2 h at 37°C, n = 6
Protocol: as §1, §2, §3

[6] = tested on: SMAP-29; assay: Inhibition by glycosaminoglycans of S. aureus killing by SMAP-29; format: cell-based, sheep; conditions: 5 μg/mL glycosaminoglycan, 0.5 μM SMAP-29, ~500 cfu USA300, phosphate buffer pH 7.4, 2 h at 37°C, n = 6
Protocol: as §1, §2, §3

[7] = tested on: CRAMP; assay: Alexa 647-CRAMP binding to Affi-Gel HP beads, competition by HP compounds (flow cytometry); set-up: species or system mouse; conditions: 20 μg/mL competitor, 0.5 μM Alexa 647-conjugated CRAMP, 1 h at room temperature, n = 4
Protocol: FIGURE 4 | 2-O-sulfated heparan compounds directly bind to CRAMP with high affinity. Alexa 647-conjugated CRAMP (0.5 μM) was incubated with Affi-Gel HP beads without or with 20 μg/mL of HP, NDS-HP, 2ODS-HP, or 6ODS-HP for 1 h at room temperature. CRAMP fluorescence associated with Affi-Gel HP beads was analyzed by flow cytometry. Results are shown as (A) % CRAMP binding and (B) mean fluorescence intensity (MFI) of CRAMP binding (n = 4, ***p < 0.001, ****p < 0.0001). ITC analyses for CRAMP binding to HP were performed at 25°C using a MicroCal iTC 200 titration calorimetry. The fitted heat curves of titrating CRAMP binding to (C) HP and (D) 2ODS-HP are shown.
Affi-Gel HP beads were washed and resuspended in PBS. Affi-Gel HP beads (20 μL) were incubated with 0.5 μM Alexa 647-labeled CRAMP without or with 20 μg/mL HP, chemically desulfated HP, or chemoenzymatically sulfated H for 1 h at room temperature. Affi-Gel HP beads were washed with PBS, and the Alexa 647-labeled CRAMP bound to them was assessed by flow cytometry.

[8] = tested on: CRAMP; assay: Alexa 647-CRAMP binding to fixed S. aureus, inhibition by glycosaminoglycans (flow cytometry); set-up: species or system mouse; conditions: 0.5 μM Alexa 647-conjugated CRAMP; for Reduction of proportion of CRAMP-bound bacteria (Alexa CRAMP binding, FACS density plots) compared to No GAG: 5 μg/ml glycosaminoglycan, fixed S. aureus USA300, 1 h at room temperature, representative plots; for Decrease of MFI of Alexa-labeled CRAMP binding to S. aureus compared to control: 5 μg/mL glycosaminoglycan, 2% paraformaldehyde-fixed S. aureus USA300, 1 h at room temperature, n = 3
Protocol: Alexa 647-conjugated CRAMP (0.5 μM) was incubated with 2% paraformaldehyde-fixed Staphylococcus aureus USA300 without or with 5 μg/mL HP, HS, CS, DS, NDS-HP, 6ODS-HP, or 2ODS-HP for 1 h at room temperature. S. aureus-associated CRAMP fluorescence was analyzed by flow cytometry. Results are shown as % Alexa CRAMP binding (n = 3, ****p < 0.0001).
Alexa 647 fluorophore was conjugated to CRAMP using the Lightning-Link Rapid FluoProbes647H labeling kit following the manufacturer’s instructions. S. aureus USA300 fixed in 2% paraformaldehyde for 20 min was resuspended in 20 μL of phosphate buffer and incubated with 0.5 μM of Alexa 647-labeled CRAMP for 30 min at room temperature without or with glycosaminoglycans. Unbound Alexa 647-labeled CRAMP was removed by washing with phosphate buffer, and Alexa 647-labeled CRAMP bound to bacteria was assessed by flow cytometry.
as §4

[9] = tested on: S. aureus USA300; assay: Pre-incubation of S. aureus with glycosaminoglycans, washing, then killing by cathelicidin; format: cell-based, Staphylococcus aureus; conditions: 5 μg/ml glycosaminoglycan pre-incubated with 500 cfu USA300 30 min at 37°C, washed three times, then 0.5 μM CRAMP 2 h at 37°C, n = 4
Protocol: Figure S1. A) CRAMP expression was measured in uninfected Wt corneas or Wt corneas isolated at 4 h post-S. aureus USA300 infection. Briefly, eyes were enucleated, corneas were dissected, and isolated corneas were incubated with 10 mg/ml dispase II overnight at 4°C to peel off the corneal epithelium. Total RNA was purified from the corneal epithelium, and 1 ng of total RNA was analyzed by qRT-PCR for CRAMP or β-actin expression (n = 3, **p < 0.01). […] Bacterial killing was measured by plating serial dilutions onto TSA plates and counting colonies the following day. Results are shown as % bacterial survival (n = 4). Figure S2. […] Bacterial killing (%) was enumerated by plating serial dilutions onto TSA plates and counting colonies the following day (n = 5). B) Effects of pre-incubating S. aureus with glycosaminoglycans on bacterial killing by cathelicidins were examined by incubating 500 cfu of USA300 without or with 5 μg/ml HS, HP, DS, or CS for 30 min at 37°C. Bacteria were washed three times with buffer, incubated with 0.5 μM CRAMP for 2 h at 37°C, and % bacterial killing was determined by plating serial dilutions of samples (n = 4). Figure S3. […] Images were captured with a fluorescence microscope (Zeiss Axiovert 40 CFL). Quantification of % dead bacteria (out of total bacteria in field) is shown at the bottom. […] S. aureus-associated CRAMP fluorescence was analyzed by flow cytometry. […]

Row | Compound | S. aureus killed ([1]; 0.5 μM peptide) | pI [2] | Inhibition of S. aureus killing by CAP-18 [3] | Inhibition of S. aureus killing by CRAMP [4] | Inhibition of S. aureus killing by LL-37 [5] | Inhibition of S. aureus killing by SMAP-29 [6] | Inhibition of CRAMP binding to HP beads [7] | Reduction of proportion of CRAMP-bound bacteria (Alexa CRAMP binding, FACS density plots) compared to No GAG [8] | Decrease of MFI of Alexa-labeled CRAMP binding to S. aureus compared to control [8] | S. aureus killed ([1]; 1 μM peptide) | Inhibition of bacterial killing by cathelicidins after pre-incubation with bacteria and washing away [9] | Inhibition of bacterial killing by CRAMP, titration study ([4]; 5 μg/mL (~0.5 μM) HS, 500 cfu USA300, 2 h at 37°C, n = 5)
1 | CAP-18 | Greater than 98% | 11.9 |  |  |  |  |  |  |  |  |  | 
2 | heparosan |  |  | minimal effect | minimal effect | minimal effect | minimal effect |  |  |  |  |  | 
3 | 6-O-desulfated HP [6ODS-HP] |  |  | did not alter the ability of HP to significantly inhibit | did not alter the ability of HP to significantly inhibit | did not alter the ability of HP to significantly inhibit | did not alter the ability of HP to significantly inhibit | over 75% |  |  |  |  | 
4 | N-desulfated HP [NDS-HP] |  |  | did not alter the ability of HP to significantly inhibit | did not alter the ability of HP to significantly inhibit | did not alter the ability of HP to significantly inhibit | did not alter the ability of HP to significantly inhibit | over 75% | approximately 65% |  |  |  | 
5 | chondroitin sulfate A [CS] |  |  | no significant effect | no significant effect | no significant effect | no significant effect |  | not | no effect |  |  | 
6 | CC[C@H](C)[C@H](NC(=O)[C@H](CCCCN)NC(=O)[C@H](CCC(=O)O)NC(=O)[C@H](CCCCN)NC(=O)[C@H](CO)NC(=O)[C@H](CCCCN)NC(=O)[C@H](CCCNC(=N)N)NC(=O)[C@H](Cc1ccccc1)NC(=O)[C@H](Cc1ccccc1)NC(=O)[C@H](CC(=O)O)NC(=O)CNC(=O)[C@H](CC(C)C)NC(=O)[C@@H](N)CC(C)C)C(=O)NCC(=O)N[C@@H](CCCCN)C(=O)N[C@@H](CCC(=O)O)C(=O)N[C@@H](Cc1ccccc1)C(=O)N[C@@H](CCCCN)C(=O)N[C@@H](CCCNC(=N)N)C(=O)N[C@H](C(=O)N[C@H](C(=O)N[C@@H](CCC(N)=O)C(=O)N[C@@H](CCCNC(=N)N)C(=O)N[C@H](C(=O)N[C@@H](CCCCN)C(=O)N[C@@H](CC(=O)O)C(=O)N[C@@H](Cc1ccccc1)C(=O)N[C@@H](CC(C)C)C(=O)N[C@@H](CCCNC(=N)N)C(=O)N[C@@H](CC(N)=O)C(=O)N[C@@H](CC(C)C)C(=O)N[C@H](C(=O)N1CCC[C@H]1C(=O)N[C@@H](CCCNC(=N)N)C(=O)N[C@H](C(=O)N[C@@H](CCC(=O)O)C(=O)N[C@@H](CO)C(=O)O)[C@@H](C)O)C(C)C)[C@@H](C)CC)C(C)C)[C@@H](C)CC [LL-37] |  | 10.5 |  |  |  |  |  |  |  | Greater than 98% |  | 
7 | dermatan sulfate [DS] |  |  | 21% | did not inhibit | 27% | did not inhibit |  | not | no effect |  |  | 
8 | heparan sulfate [HS] |  |  | over 70% | over 70% | over 70% | over 70% |  |  |  |  | did not inhibit | significantly inhibited
